Laboratory results reported in PMC6627454, “Size and Flexibility Define the Inhibition of the H3N2 Influenza Endonuclease Enzyme by Calix[n]arenes” (Antibiotics, 2019).

test system: PA endonuclease; assay: not given; conditions: PA endonuclease, in vitro assays only; read-out: Inhibition Activity IC50; cited from earlier work

Question: For O=C(O)c1c[nH]cc(O)c1=O [5-hydroxy-4-pyridone-3-carboxy acid], which IC50 is on record?
Answer: Its IC50 is 3.23 µM.

Question: Which IC50 does the source give for O=c1[nH]cncc1O [5-hydroxypyrimidin-4(3H)-one] here?
Answer: Its IC50 is 0.15 µM.

same assay, conditions: PA endonuclease; read-out: Inhibition Activity IC50; cited from earlier work

Question: With O=C1c2c(O)c(=O)ccn2N([C@@H]2c3ccccc3SCc3c2ccc(F)c3F)[C@@H]2COCCN12 [Baloxavir Acid] as the compound, how does the IC50 read?
Answer: The IC50 was 0.00023 µM.

same assay, conditions: in vitro assay, viral PA polymerase unit; read-out: IC50; cited from earlier work

Question: For O=C1c2c(O)c(=O)ccn2N([C@@H]2c3ccccc3SCc3c2ccc(F)c3F)[C@@H]2COCCN12 [Baloxavir Acid], which IC50 is on record?
Answer: The IC50 was 0.0025 µM.

target: H3N2 influenza PA endonuclease (Influenza A virus, UniProt P31343); assay: PA endonuclease inhibition assay (λ-DNA digestion, agarose gel electrophoresis); format: biochemical, Influenza A/Victoria/3/1975 (H3N2); conditions: 0.5 µg λ-DNA, PA endonuclease 0.5 mg/mL, 1 h at 37 °C, 1 mM MnCl2, pH 8; 3 measurements
Method: The digestion activity of the purified PA endonuclease was quantified using agarose gel electrophoresis. A concentration range of PA endonuclease (0.5 mg/mL to 0.5 µg/mL) was mixed with 0.5 µg of λ-DNA (Takara, Japan) in buffer at a final concentration of 20 mM Tris HCl pH 8, 100 mM NaCl, 1 mM MnCl2, 10 mM β-mercaptoethanol. After one hour of incubation at 37 °C, the samples were deposited on ethidium bromide treated agarose gel 0.6% and run during 90 minutes at 75 V. The gel was then scanned (Figure S2). 100 µM solutions of each macrocyclic molecules (Scheme 1) were mixed with 0.5 µg of buffered λ-DNA. This mixture was then combined with the PA endonuclease enzyme and incubated for 1 hour at 37 °C. The samples were deposited on agarose gel 0.6% previously mixed with ethidium bromide and run during 90 minutes at 75 V, after which the gel was scanned. Digestion activity was plotted as a function of inhibitor concentration by quantifying the intensity of the digested bands with ImageJ software. The IC50 values were calculated as in our work on endonuclease inhibition. The intensity of λ-DNA bands was subtracted from negative control (λ-DNA lane) and then normalized from the positive control (λ-DNA and PA protein lane without inhibitor).
100 µM of each macrocyclic molecules β-CDsul, SC[n]a, SC[n]b, and SC[n]c (Figure 1) have been mixed to 0.5 µg of λ-DNA in a buffer at final concentration of 20 mM Tris HCl pH 8, 100 mM NaCl, 1 mM MnCl2, 10 mM β-mercaptoethanol.
The mixture was then mixed with the PA endonuclease enzyme at 0.5 mg/mL and incubated for 1 h at 37 °C.
The samples have been deposited on agarose gel 0.6% previously mixed with ethidium bromide and run over 90 min at 75 V. The gel was then scanned on the ChemiDoc XRS system (Bio-Rad).
The digestion activity is then plotted as a matter of inhibitor concentration by quantifying the intensity of the digested bands with ImageJ software.

Question: For O=P(O)(O)Oc1c2cccc1Cc1cccc(c1O)Cc1cccc(c1OP(=O)(O)O)Cc1cccc(c1O)C2 [C4diP, Calix[4]arene dihydroxyphosphonic acid], which IC50 is on record?
Answer: Its IC50 is over 100 µM.

Question: With O=S(=O)(O)OC[C@H]1O[C@@H]2O[C@H]3[C@H](OS(=O)(=O)O)[C@@H](OS(=O)(=O)O)[C@@H](O[C@H]4[C@H](OS(=O)(=O)O)[C@@H](OS(=O)(=O)O)[C@@H](O[C@H]5[C@H](OS(=O)(=O)O)[C@@H](OS(=O)(=O)O)[C@@H](O[C@H]6[C@H](OS(=O)(=O)O)[C@@H](OS(=O)(=O)O)[C@@H](O[C@H]7[C@H](OS(=O)(=O)O)[C@@H](OS(=O)(=O)O)[C@@H](O[C@H]8[C@H](OS(=O)(=O)O)[C@@H](OS(=O)(=O)O)[C@@H](O[C@H]1[C@H](OS(=O)(=O)O)[C@H]2OS(=O)(=O)O)O[C@@H]8COS(=O)(=O)O)O[C@@H]7COS(=O)(=O)O)O[C@@H]6COS(=O)(=O)O)O[C@@H]5COS(=O)(=O)O)O[C@@H]4COS(=O)(=O)O)O[C@@H]3COS(=O)(=O)O [CD, Sulfated β-cyclodextrin, reference compound] as the compound, how does the IC50 read?
Answer: Its IC50 is over 100 µM.

Question: With O=S(=O)(O)c1cc2c(O)c(c1)Cc1cc(S(=O)(=O)O)cc(c1O)Cc1cc(S(=O)(=O)O)cc(c1O)Cc1cc(S(=O)(=O)O)cc(c1O)C2 [SC4a, para-sulfonato-calix[4]arene] as the compound, how does the IC50 read?
Answer: The IC50 was over 100 µM.

Question: For O=S(=O)(O)CCCOc1c2cccc1Cc1cccc(c1OCCCS(=O)(=O)O)Cc1cccc(c1OCCCS(=O)(=O)O)Cc1cccc(c1OCCCS(=O)(=O)O)C2 [SC4b], which IC50 is on record?
Answer: The IC50 was over 100 µM.

Question: Which IC50 does the source give for O=S(=O)(O)CCCOc1c2cc(S(=O)(=O)O)cc1Cc1cc(S(=O)(=O)O)cc(c1OCCCS(=O)(=O)O)Cc1cc(S(=O)(=O)O)cc(c1OCCCS(=O)(=O)O)Cc1cc(S(=O)(=O)O)cc(c1OCCCS(=O)(=O)O)C2 [SC4c] here?
Answer: Its IC50 is over 100 µM.

Question: With O=S(=O)(O)c1cc2c(O)c(c1)Cc1cc(S(=O)(=O)O)cc(c1O)Cc1cc(S(=O)(=O)O)cc(c1O)Cc1cc(S(=O)(=O)O)cc(c1O)Cc1cc(S(=O)(=O)O)cc(c1O)Cc1cc(S(=O)(=O)O)cc(c1O)C2 [SC6a] as the compound, how does the IC50 read?
Answer: The IC50 was 11.2 ± 3.6 µM.

Question: Which IC50 does the source give for O=S(=O)(O)CCCOc1c2cccc1Cc1cccc(c1OCCCS(=O)(=O)O)Cc1cccc(c1OCCCS(=O)(=O)O)Cc1cccc(c1OCCCS(=O)(=O)O)Cc1cccc(c1OCCCS(=O)(=O)O)Cc1cccc(c1OCCCS(=O)(=O)O)C2 [SC6b] here?
Answer: Its IC50 is over 100 µM.

Question: With O=S(=O)(O)CCCOc1c2cc(S(=O)(=O)O)cc1Cc1cc(S(=O)(=O)O)cc(c1OCCCS(=O)(=O)O)Cc1cc(S(=O)(=O)O)cc(c1OCCCS(=O)(=O)O)Cc1cc(S(=O)(=O)O)cc(c1OCCCS(=O)(=O)O)Cc1cc(S(=O)(=O)O)cc(c1OCCCS(=O)(=O)O)Cc1cc(S(=O)(=O)O)cc(c1OCCCS(=O)(=O)O)C2 [SC6c] as the compound, how does the IC50 read?
Answer: The IC50 was over 100 µM.

Question: Which IC50 does the source give for O=S(=O)(O)c1cc2c(O)c(c1)Cc1cc(S(=O)(=O)O)cc(c1O)Cc1cc(S(=O)(=O)O)cc(c1O)Cc1cc(S(=O)(=O)O)cc(c1O)Cc1cc(S(=O)(=O)O)cc(c1O)Cc1cc(S(=O)(=O)O)cc(c1O)Cc1cc(S(=O)(=O)O)cc(c1O)Cc1cc(S(=O)(=O)O)cc(c1O)C2 [SC8a, para-sulfonato-calix[8]arene] here?
Answer: The IC50 was 6.4 ± 1.4 µM.

Question: For O=S(=O)(O)CCCOc1c2cccc1Cc1cccc(c1OCCCS(=O)(=O)O)Cc1cccc(c1OCCCS(=O)(=O)O)Cc1cccc(c1OCCCS(=O)(=O)O)Cc1cccc(c1OCCCS(=O)(=O)O)Cc1cccc(c1OCCCS(=O)(=O)O)Cc1cccc(c1OCCCS(=O)(=O)O)Cc1cccc(c1OCCCS(=O)(=O)O)C2 [SC8b], which IC50 is on record?
Answer: Its IC50 is 14 ± 2.2 µM.

Question: For O=S(=O)(O)CCCOc1c2cc(S(=O)(=O)O)cc1Cc1cc(S(=O)(=O)O)cc(c1OCCCS(=O)(=O)O)Cc1cc(S(=O)(=O)O)cc(c1OCCCS(=O)(=O)O)Cc1cc(S(=O)(=O)O)cc(c1OCCCS(=O)(=O)O)Cc1cc(S(=O)(=O)O)cc(c1OCCCS(=O)(=O)O)Cc1cc(S(=O)(=O)O)cc(c1OCCCS(=O)(=O)O)Cc1cc(S(=O)(=O)O)cc(c1OCCCS(=O)(=O)O)Cc1cc(S(=O)(=O)O)cc(c1OCCCS(=O)(=O)O)C2 [SC8c], which IC50 is on record?
Answer: Its IC50 is 18.7 ± 0.7 µM.

same assay, conditions: macrocycle at 100 µM

Question: For O=P(O)(O)Oc1c2cccc1Cc1cccc(c1O)Cc1cccc(c1OP(=O)(O)O)Cc1cccc(c1O)C2 [C4diP, Calix[4]arene dihydroxyphosphonic acid], which “inhibitory effect on PA endonuclease” value is on record?
Answer: Its value is “neither SC4 and its derivatives nor C4diP show any inhibitory effects”.

Question: For O=S(=O)(O)c1cc2c(O)c(c1)Cc1cc(S(=O)(=O)O)cc(c1O)Cc1cc(S(=O)(=O)O)cc(c1O)Cc1cc(S(=O)(=O)O)cc(c1O)C2 [SC4a, para-sulfonato-calix[4]arene], which “inhibitory effect on PA endonuclease” value is on record?
Answer: The value was “neither SC4 and its derivatives nor C4diP show any inhibitory effects”.

test system: influenza virus; assay: not given; parameters: method as in PMID 30184455; conditions: clinical trials, compared to oseltamivir; cited from earlier work

Question: With COC(=O)OCOc1c2n(ccc1=O)N([C@@H]1c3ccccc3SCc3c1ccc(F)c3F)[C@@H]1COCCN1C2=O [Baloxavir Marboxil] as the compound, how does the “reduction in viral loads” value read?
Answer: Its value is “greater reduction in viral loads”.
